One test relates to p-4EBP1 (Ser65). Description: In vitro inhibition of protein phosphorylation, Western blot in MV4-11 cells. In kind it is cell-based, human. The following applies: for IC50: Homo sapiens, MV4-11, MV411 cells, read-out: calculated cellular IC50 for biomarker inhibition, p-4EBP1 (Ser65). How it is done:
(§1) The inventors have investigated the efficacy of PIM-1 kinase inhibition by compound 20 on MV4-11 cells 4 h and 24 h after the treatment. The efficacy of PIM-1 inhibition was evaluated basing on the changes in the expression and phosphorylation levels of its downstream target proteins, using Western blot (FIG. 1). Sunitinib was used as a positive control. After densitometric quantification of the obtained results, cellular IC50 was assessed (Table 6). […] PIM-1 and tubulin protein levels were assessed as controls.

The next test has as its system c-MYC. The description is as above. The following applies: for IC50: Homo sapiens, MV4-11, MV411 cells, read-out: calculated cellular IC50 for biomarker inhibition, c-MYC. In kind it is cell-based, human. How it is done: as §1
For another test, the target named is Abl(m) (Mus musculus (Mouse), UniProt P00520). The test is described as follows: KinaseProfiler kinase panel. Format: biochemical.
For the next test, the target named is MSK2(h) (Homo sapiens (Human), UniProt O75676). Description: KinaseProfiler kinase panel. Format: biochemical.
The target of a further test is cKit(D816H)(h) (Homo sapiens (Human), UniProt P10721, D816H). Description: KinaseProfiler kinase panel. In kind it is biochemical.
For another test, the target named is BTK(R28H)(h) (Homo sapiens (Human), UniProt Q06187, R28H). Description: KinaseProfiler kinase panel. In kind it is biochemical.
A further test addresses MRCKβ(h) (Homo sapiens (Human), UniProt Q9Y5S2). The test is described as follows: KinaseProfiler kinase panel. In kind it is biochemical.
Another test addresses Flt1(h) (Homo sapiens (Human), UniProt P17948). Description: KinaseProfiler kinase panel. Format: biochemical.
For the next test, the target named is FGFR3(h) (Homo sapiens (Human), UniProt P22607). Description: KinaseProfiler kinase panel. In kind it is biochemical.
In another test the target is Yes(h) (Homo sapiens (Human), UniProt P07947). The test is described as follows: KinaseProfiler kinase panel. In kind it is biochemical.
The next test concerns the target JNK1α1(h) (Homo sapiens (Human), UniProt P45983). Description: KinaseProfiler kinase panel. In kind it is biochemical.
The target of a further test is EphA4(h) (Homo sapiens (Human), UniProt P54764). Description: KinaseProfiler kinase panel. In kind it is biochemical.
The target of another test is PAK5(h) (Homo sapiens (Human), UniProt Q9P286). The test is described as follows: KinaseProfiler kinase panel. Format: biochemical.
Another test addresses Fer(h) (Homo sapiens (Human), UniProt P16591). Description: KinaseProfiler kinase panel. Format: biochemical.
In a further test the target is SIK(h) (Homo sapiens (Human), UniProt P57059). The test is described as follows: KinaseProfiler kinase panel. In kind it is biochemical.
The target of another test is CDK7/cyclinH/MAT1(h) (Homo sapiens (Human), UniProt P50613). The test is described as follows: KinaseProfiler kinase panel. Format: biochemical.
A further test addresses CDK9/cyclin T1(h) (Homo sapiens (Human), UniProt P50750). The test is described as follows: KinaseProfiler kinase panel. In kind it is biochemical.
The next test has as its target MKK7β(h) (Homo sapiens (Human), UniProt O14733). The test is described as follows: KinaseProfiler kinase panel. Format: biochemical.
The subject of a further test is CK1(y). Description: KinaseProfiler kinase panel. In kind it is biochemical, yeast. As to conditions: 1 μM.
A further test addresses Blk(m) (Mus musculus (Mouse), UniProt P16277). The test is described as follows: KinaseProfiler kinase panel. In kind it is biochemical.
A further test concerns the target TAO3(h) (Homo sapiens (Human), UniProt Q9H2K8). The test is described as follows: KinaseProfiler kinase panel. In kind it is biochemical.
Another test deals with HIPK1(h) (Homo sapiens (Human), UniProt Q86Z02). Description: KinaseProfiler kinase panel. Format: biochemical.
For the next test, the target named is MINK(h) (Homo sapiens (Human), UniProt Q8N4C8). The test is described as follows: KinaseProfiler kinase panel. Format: biochemical.
The target in the next test is TBK1(h) (Homo sapiens (Human), UniProt Q9UHD2). The test is described as follows: KinaseProfiler kinase panel. In kind it is biochemical.
The target of a further test is PKCζ(h) (Homo sapiens (Human), UniProt Q05513). Description: KinaseProfiler kinase panel. In kind it is biochemical.
In the next test the target is Abl(Y253F)(h) (Homo sapiens (Human), UniProt P00519, Y253F). Description: KinaseProfiler kinase panel. In kind it is biochemical.
In a further test the target is EphA3(h) (Homo sapiens (Human), UniProt P29320). Description: KinaseProfiler kinase panel. Format: biochemical.
The target of the next test is SAPK3(h) (Homo sapiens (Human), UniProt P53778). The test is described as follows: KinaseProfiler kinase panel. In kind it is biochemical.
In a further test the target is VRK2(h) (Homo sapiens (Human), UniProt Q86Y07). The test is described as follows: KinaseProfiler kinase panel. Format: biochemical.
Another test deals with CDK5/p25(h) (Homo sapiens (Human), UniProt Q00535). Description: KinaseProfiler kinase panel. In kind it is biochemical.
A further test deals with PKBβ(h) (Homo sapiens (Human), UniProt P31751). The test is described as follows: KinaseProfiler kinase panel. Format: biochemical.
The next test has as its target PKD2(h) (Homo sapiens (Human), UniProt Q9BZL6). The test is described as follows: KinaseProfiler kinase panel. In kind it is biochemical.
The next test deals with PRK2(h) (Homo sapiens (Human), UniProt Q16513). Description: KinaseProfiler kinase panel. Format: biochemical.
For another test, the target named is EphA7(h) (Homo sapiens (Human), UniProt Q15375). The test is described as follows: KinaseProfiler kinase panel. In kind it is biochemical.
The target of a further test is Lck(h) activated (Homo sapiens (Human), UniProt P06239). Description: KinaseProfiler kinase panel. Format: biochemical.
In the next test the target is Syk(h) (Homo sapiens (Human), UniProt P43405). The test is described as follows: KinaseProfiler kinase panel. In kind it is biochemical.

Read-outs that look alike come from different tables or passages of the source.

Sequence of VRK2(h) (Q86Y07 whole entry): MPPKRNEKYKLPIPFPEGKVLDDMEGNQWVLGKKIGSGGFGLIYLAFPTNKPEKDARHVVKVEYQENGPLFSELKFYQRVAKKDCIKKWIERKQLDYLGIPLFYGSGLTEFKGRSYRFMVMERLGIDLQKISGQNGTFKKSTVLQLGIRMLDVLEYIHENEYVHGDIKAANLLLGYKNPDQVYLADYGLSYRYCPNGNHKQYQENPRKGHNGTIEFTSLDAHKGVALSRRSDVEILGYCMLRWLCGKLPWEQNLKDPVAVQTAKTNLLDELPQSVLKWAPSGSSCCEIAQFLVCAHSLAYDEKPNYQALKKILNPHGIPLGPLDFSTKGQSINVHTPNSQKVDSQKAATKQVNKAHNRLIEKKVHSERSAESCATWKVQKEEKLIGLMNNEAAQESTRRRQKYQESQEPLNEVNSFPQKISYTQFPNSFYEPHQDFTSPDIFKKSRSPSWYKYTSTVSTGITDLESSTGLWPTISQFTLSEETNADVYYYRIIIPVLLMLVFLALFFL
Sequence of PKBβ(h) (P31751 whole entry): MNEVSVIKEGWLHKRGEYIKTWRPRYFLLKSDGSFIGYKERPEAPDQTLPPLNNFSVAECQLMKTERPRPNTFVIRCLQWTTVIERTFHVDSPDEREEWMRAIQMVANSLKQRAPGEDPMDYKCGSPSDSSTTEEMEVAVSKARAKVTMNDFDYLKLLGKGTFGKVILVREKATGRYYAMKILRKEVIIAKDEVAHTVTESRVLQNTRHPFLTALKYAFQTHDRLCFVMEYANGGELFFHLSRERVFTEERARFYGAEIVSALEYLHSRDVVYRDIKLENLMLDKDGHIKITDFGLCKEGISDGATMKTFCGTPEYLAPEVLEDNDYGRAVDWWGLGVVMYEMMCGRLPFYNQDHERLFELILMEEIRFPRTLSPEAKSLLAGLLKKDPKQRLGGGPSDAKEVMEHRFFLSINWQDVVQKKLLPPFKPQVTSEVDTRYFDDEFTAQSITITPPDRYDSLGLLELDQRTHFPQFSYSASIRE
Sequence of TBK1(h) (Q9UHD2 whole entry): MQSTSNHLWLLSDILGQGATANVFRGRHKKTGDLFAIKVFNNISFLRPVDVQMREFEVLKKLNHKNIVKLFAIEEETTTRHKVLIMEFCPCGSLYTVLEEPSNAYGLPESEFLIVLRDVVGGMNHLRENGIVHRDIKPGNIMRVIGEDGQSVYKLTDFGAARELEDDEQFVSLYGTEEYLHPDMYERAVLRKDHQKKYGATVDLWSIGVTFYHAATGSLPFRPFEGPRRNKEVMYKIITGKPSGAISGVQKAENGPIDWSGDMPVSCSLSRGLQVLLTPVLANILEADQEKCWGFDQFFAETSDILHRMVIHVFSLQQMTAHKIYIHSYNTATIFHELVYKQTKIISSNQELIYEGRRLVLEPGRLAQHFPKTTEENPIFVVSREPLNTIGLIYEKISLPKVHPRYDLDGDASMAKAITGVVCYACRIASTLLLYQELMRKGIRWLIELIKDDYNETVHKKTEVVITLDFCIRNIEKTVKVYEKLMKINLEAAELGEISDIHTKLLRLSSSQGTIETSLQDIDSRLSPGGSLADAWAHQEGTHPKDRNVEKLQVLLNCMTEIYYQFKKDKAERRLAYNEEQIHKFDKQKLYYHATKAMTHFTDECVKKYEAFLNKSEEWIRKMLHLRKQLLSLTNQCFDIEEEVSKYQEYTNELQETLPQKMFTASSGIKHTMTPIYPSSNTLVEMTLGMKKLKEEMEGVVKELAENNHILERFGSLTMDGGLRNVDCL
Sequence of PAK5(h) (Q9P286 whole entry): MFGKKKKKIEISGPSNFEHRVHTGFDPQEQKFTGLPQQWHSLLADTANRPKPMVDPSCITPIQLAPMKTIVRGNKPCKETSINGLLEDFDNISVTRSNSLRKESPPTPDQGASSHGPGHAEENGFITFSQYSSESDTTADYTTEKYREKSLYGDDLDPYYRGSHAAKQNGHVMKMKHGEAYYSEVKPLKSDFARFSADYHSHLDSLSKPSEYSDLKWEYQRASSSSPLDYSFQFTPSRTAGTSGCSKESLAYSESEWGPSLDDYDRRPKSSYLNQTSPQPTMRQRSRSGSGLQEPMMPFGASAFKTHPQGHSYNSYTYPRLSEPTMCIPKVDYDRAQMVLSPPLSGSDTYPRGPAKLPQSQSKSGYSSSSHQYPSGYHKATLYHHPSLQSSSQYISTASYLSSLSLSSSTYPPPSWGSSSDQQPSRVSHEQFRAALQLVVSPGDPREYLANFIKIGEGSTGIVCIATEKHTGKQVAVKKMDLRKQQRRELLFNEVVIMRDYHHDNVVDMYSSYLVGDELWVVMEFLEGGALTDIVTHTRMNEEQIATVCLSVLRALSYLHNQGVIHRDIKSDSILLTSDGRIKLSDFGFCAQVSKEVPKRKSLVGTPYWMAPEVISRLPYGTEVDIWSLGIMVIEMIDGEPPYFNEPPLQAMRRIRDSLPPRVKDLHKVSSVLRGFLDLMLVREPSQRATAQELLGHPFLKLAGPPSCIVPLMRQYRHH
Sequence of TAO3(h) (Q9H2K8 whole entry): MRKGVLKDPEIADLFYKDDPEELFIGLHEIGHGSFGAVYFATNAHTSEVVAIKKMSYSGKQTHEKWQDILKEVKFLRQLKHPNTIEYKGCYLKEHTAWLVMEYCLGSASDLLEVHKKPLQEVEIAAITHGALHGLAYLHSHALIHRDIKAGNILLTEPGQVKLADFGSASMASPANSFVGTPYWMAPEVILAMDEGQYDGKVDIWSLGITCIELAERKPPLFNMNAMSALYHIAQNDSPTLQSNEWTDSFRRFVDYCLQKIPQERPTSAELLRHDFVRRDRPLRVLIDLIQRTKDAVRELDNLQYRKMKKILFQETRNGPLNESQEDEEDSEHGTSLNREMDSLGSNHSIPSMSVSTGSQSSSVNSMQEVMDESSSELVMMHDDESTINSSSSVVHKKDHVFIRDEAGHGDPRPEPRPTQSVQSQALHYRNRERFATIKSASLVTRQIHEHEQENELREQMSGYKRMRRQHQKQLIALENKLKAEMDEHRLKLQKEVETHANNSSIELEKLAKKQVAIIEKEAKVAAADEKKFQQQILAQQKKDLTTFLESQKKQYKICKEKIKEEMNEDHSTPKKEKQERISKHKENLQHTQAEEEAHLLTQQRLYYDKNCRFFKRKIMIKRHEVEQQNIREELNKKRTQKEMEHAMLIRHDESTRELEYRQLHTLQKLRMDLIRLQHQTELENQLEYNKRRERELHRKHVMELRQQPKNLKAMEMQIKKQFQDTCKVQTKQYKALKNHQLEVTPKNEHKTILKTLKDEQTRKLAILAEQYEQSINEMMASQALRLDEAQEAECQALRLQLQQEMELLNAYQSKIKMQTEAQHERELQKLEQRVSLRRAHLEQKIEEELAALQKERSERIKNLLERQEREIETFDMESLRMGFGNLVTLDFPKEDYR
Sequence of BTK(R28H)(h) (Q06187 whole entry R28H): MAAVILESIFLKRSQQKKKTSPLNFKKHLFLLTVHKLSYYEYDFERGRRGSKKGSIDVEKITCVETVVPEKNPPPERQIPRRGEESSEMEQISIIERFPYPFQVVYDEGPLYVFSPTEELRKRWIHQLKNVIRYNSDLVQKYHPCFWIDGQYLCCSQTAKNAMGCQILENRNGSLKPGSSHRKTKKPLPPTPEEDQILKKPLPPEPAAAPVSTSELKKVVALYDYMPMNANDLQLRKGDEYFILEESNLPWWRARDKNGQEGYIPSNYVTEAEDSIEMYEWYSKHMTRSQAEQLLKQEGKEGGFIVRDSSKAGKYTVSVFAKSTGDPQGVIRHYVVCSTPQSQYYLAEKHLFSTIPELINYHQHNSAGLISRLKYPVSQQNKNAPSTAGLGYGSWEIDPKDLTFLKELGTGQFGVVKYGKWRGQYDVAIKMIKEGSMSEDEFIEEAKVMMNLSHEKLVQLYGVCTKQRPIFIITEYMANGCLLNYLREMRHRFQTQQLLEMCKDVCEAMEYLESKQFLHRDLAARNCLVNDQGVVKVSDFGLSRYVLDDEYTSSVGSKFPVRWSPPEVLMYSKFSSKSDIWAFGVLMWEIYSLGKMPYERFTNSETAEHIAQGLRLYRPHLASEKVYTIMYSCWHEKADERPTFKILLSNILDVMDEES
Sequence of MKK7β(h) (O14733 whole entry, change not shown): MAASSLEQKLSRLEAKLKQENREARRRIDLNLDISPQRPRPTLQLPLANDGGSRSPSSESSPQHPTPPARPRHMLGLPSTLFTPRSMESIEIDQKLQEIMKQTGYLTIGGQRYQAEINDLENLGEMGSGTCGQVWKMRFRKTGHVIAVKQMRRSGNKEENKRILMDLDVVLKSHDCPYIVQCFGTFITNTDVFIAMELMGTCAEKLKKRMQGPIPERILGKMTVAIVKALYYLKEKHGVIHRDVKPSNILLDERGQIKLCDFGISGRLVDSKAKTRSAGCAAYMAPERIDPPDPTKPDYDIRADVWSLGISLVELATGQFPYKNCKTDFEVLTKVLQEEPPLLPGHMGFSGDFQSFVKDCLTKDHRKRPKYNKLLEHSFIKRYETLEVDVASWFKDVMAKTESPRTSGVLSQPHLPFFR
Sequence of JNK1α1(h) (P45983 other isoform, or with tags, fused parts or gaps): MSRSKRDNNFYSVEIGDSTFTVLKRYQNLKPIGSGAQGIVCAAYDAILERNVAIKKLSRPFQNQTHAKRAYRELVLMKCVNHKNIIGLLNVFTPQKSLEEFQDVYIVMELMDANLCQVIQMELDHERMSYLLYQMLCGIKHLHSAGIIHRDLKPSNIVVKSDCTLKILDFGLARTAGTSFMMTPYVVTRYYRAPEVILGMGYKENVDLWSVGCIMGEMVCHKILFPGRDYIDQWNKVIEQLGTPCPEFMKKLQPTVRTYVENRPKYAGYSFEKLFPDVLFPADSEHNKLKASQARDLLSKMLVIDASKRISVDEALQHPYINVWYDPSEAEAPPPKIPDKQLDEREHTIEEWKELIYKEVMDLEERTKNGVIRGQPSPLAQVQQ

`Brc1c(Br)c(Br)c2[nH]c(N3CCNCC3)nc2c1Br` [Compound 20, 4,5,6,7-tetrabromo-2-(piperazin-1-yl)-1H-benzo[d]imidazole]: the IC50 in the test on p-4EBP1 (Ser65) (4 h treatment) is 3130 nM; in the test on p-4EBP1 (Ser65) (24 h treatment), 1120 nM; in the test on c-MYC (4 h treatment), 890 nM; with c-MYC (24 h treatment) it was 2030 nM. Further, the “inhibition of p-4EBP1(Ser65) (Western blot)” value in the test with p-4EBP1 (Ser65) (MV4-11 cells, 4 h and 24 h) is “dose- and time-dependent inhibition”. The “inhibition of c-MYC (Western blot)” value in the test on c-MYC (MV4-11 cells, after 4 h and 24 h) was “dose dependent inhibition”.
As for `CCn1c(N2CCNCC2)nc2c(Br)c(Br)c(Br)c(Br)c21` [Compound 416, 4,5,6,7-tetrabromo-1-ethyl-2-(piperazin-1-yl)-1H-benzo[d]imidazole], the remaining activity at 1 µM is 90% on Abl(m); 16% at MSK2(h); 6% at cKit(D816H)(h); 102% at BTK(R28H)(h); 113% at MRCKβ(h); 40% on Flt1(h). Further, the remaining activity at 1 µM at FGFR3(h) is 105%; on Yes(h) it was 48%; on JNK1α1(h), 97%; on EphA4(h) it was 99%; at PAK5(h) it was 93%; on Fer(h) it was 100%. For the same compound, the remaining activity at 1 µM at SIK(h) was found to be 84%; at CDK7/cyclinH/MAT1(h) it was 25%; at CDK9/cyclin T1(h), 27%; on MKK7β(h), 95%; at Blk(m), 97%; on TAO3(h), 14%. In addition, the remaining activity at 1 µM turned out to be 8% on HIPK1(h); 87% at MINK(h); 104% at TBK1(h); 107% on PKCζ(h); 92% on Abl(Y253F)(h); 94% at EphA3(h). Further, the remaining activity at 1 µM on SAPK3(h) was found to be 68%; at VRK2(h), 103%; on CDK5/p25(h), 1%; at PKBβ(h), 90%; at PKD2(h) it was 58%; at PRK2(h), 56%. Further, the figures for the remaining activity at 1 µM on EphA7(h), at Lck(h) activated and at Syk(h) were 91%, 69% and 95%, respectively. The “% remaining activity” value in the test on CK1(y) is recorded as 6%.

In general, IC50 refers to the concentration that gives 50% inhibition.

The values are drawn from patent publication US8604217B2, “Compound, a process for its preparation, a pharmaceutical composition, use of a compound, a method for modulating or regulating serine/threonine kinases and a serine/threonine kinases modulating agent” (Selvita S.A., priority 2009, dated 2013).
